One series deals with NiV. The conditions noted are these: cited from earlier work.
Series [1] relates to pseudotyped NiV/VSV virus (pNiV).
Series [2] deals with SARS-CoV-2 (isolate USA-WA1/2020). Format: cell-based.
Series [3] relates to HEK293T cells expressing NiV F and G. The format is cell-based.
The target in series [4] is NiV F and G on pNiV virions (Nipah virus, UniProt Q9IH62+Q9IH63).
In the next series the target is NiV F protein (Nipah virus, UniProt Q9IH63).
The subject of series [5] is Human Cytomegalovirus (HCMV). The format is cell-based.
In another series the test system is pNiV viral membranes. Details: species or system NiV.
In the next series the target is NiV G glycoprotein (Nipah virus, UniProt Q9IH62).
Chain of NiV G glycoprotein (Q9IH62 whole entry, looked up, the tested form may be a part): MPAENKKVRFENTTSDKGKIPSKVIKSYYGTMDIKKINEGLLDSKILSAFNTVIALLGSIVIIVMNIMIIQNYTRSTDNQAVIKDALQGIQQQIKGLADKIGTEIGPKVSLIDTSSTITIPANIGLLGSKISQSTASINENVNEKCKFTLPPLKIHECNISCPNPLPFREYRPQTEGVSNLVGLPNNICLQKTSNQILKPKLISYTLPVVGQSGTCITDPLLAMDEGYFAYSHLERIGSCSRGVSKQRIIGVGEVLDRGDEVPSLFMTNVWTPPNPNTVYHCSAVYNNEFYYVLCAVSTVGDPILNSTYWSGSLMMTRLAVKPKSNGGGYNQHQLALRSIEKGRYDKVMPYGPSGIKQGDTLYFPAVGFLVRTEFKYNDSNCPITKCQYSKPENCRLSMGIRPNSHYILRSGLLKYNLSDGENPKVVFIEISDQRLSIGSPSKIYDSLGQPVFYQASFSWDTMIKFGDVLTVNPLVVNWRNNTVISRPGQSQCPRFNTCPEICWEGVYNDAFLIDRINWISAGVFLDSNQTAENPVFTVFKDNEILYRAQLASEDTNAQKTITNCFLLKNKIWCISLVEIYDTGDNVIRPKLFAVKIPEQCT
In another series the test system is HSV-1 KOS. Description: Plaque assay for HSV-1 infections. Format: cell-based. The note with it: virions treated with XM-01 before infection, various concentrations. The procedure: At 3 h post-inoculation, the medium was removed. At 18 to 24 h post-infection, the culture medium was removed, and cells were fixed with an ice-cold methanol-acetone solution (2:1 ratio) for 20 min at […] and air-dried. Virus titers were determined by immunoperoxidase staining with anti-HSV polyclonal antibody HR50 (Fitzgerald Industries, Concord, MA) (Roller et al., “Structure-Function Analysis of Herpes Simplex Virus Glycoprotein B with Fusion-from-without Activity,” Virology 382:207-216 (2008), which is hereby incorporated by reference in its entirety).

Series [6] concerns vesicular stomatitis virus (VSV). The format is cell-based.
For series [7], the system named is Human respiratory syncytial virus (RSV A2 strain). The format is cell-based.
Series [8] relates to NiV F and G glycoproteins. The format is cell-based. The conditions noted are these: XM-01 treatment.
Series [9] has as its system A/California/04/2009 (H1N1). Format: cell-based, influenza virus.
In another series the test system is norovirus. The experiment in a line: Plaque assay for norovirus infection in RAW 264.7 cells. The format is cell-based. The note with it: non-enveloped virus. The procedure:
RAW 264.7 (ATCC) cells were infected with serial dilutions of norovirus for 1 h. 3% wt/vol Seaplaque agarose in 2×MEM media was placed as a first overlay. Then, cells were incubated for 48 h when plaques were visible and counted.

Series [10] concerns bovine rotavirus strain NCDV. Description: Rotavirus infection assay in MA104 cells. Format: cell-based. The note with it: non-enveloped virus. As for the experimental part:
18β-glycyrrhetinic acid (GRA) (Sigma-Aldrich) stock solutions were prepared to a concentration of 100 mg/mL in DMSO and aliquots were stored at −80° C. The stock solutions were diluted to working concentrations in DMEM without FBS. For the control compounds, MA104 (ATCC) cells were treated for 6 h with 25 μg/mL GRA. The viability was measured with the Promega CellTiterGlo Assay according to the manufacturer's protocol, with digitonin as the control for 100% cytotoxicity. Data shown are representative of two experiments, with each concentration tested in triplicate in each experiment. Error bars indicate SEM. […] Mock-infected wells received 50 μl of 0% M199 vehicle media. 50 μl of fresh 2× control and experimental compounds were added and at 18 h post-infection, the cells were fixed for 10 min with 80% acetone (Hardy et al., “18 Beta-glycyrrhetinic Acid Inhibits Rotavirus Replication in Culture,” Virol. J. 9:96 (2012), which is hereby incorporated by reference in its entirety).

Entries after “also recorded” stand apart in the source; their conditions may differ.

Chain of NiV F protein (Q9IH63 110-546 limits assumed): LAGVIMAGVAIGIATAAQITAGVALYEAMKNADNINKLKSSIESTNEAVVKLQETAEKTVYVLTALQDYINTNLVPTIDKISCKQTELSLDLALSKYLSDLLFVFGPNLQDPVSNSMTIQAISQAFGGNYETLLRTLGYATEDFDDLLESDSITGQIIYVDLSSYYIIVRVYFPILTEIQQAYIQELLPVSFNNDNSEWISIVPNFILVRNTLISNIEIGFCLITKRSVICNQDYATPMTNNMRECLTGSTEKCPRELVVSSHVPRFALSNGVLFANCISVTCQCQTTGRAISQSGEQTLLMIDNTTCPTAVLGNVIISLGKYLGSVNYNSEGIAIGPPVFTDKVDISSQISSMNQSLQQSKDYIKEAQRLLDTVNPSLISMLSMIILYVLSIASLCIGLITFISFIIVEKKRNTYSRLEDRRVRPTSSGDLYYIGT
Chain of NiV F protein (Q9IH63 27-109 limits assumed): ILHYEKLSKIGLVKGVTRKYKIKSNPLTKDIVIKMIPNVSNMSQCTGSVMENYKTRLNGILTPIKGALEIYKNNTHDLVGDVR

In the case of `[Na+].[SH-]` [NaHS], the “antiviral effects against NiV” value in the series with NiV is given as “known antiviral effects against NiV, although at high (millimolar) concentrations”.
As to `COC(=O)C(CSSC(C)=O)NC(=O)c1ccccc1` (stereo not drawn) [XM-03], the cytotoxicity levels result in the series with Vero cells is on record as “low levels of cytotoxicity”. In addition, in [1], the “infectivity of pNiV in Vero cells” value is on record as “best inhibited pNiV infections” and the “inhibitory properties against pNiV” value is given as “inhibitory properties”.
As to `CCCCNC(=O)C(CCSSC(=O)c1ccccc1)NC(=O)c1ccccc1` (stereo not drawn) [XM-06], the “infectivity of pNiV in Vero cells” value in series [1] is reported as “best inhibited pNiV infections”.
Take `CC(=O)NC(CSSC(=O)c1ccccc1)C(=O)NCc1ccccc1` (stereo not drawn) [XM-02]: the cytotoxicity levels entry in the series on Vero cells was “low levels of cytotoxicity”. For the same compound, in series [1], the “infectivity of pNiV in Vero cells” value is “best inhibited pNiV infections” and the “inhibitory properties against pNiV” value is “inhibitory properties”.
Consider `C=O` [formalin, reference compound], for which, in [2], the “inactivation of SARS-CoV-2” value was “complete inactivation”.
Take `COC(=O)C(CSC(=O)c1ccccc1)NC(=O)c1ccccc1` (stereo not drawn) [XM-10]: the cytotoxicity levels result with Vero cells is “low levels of cytotoxicity”. In addition, the “inhibitory properties against pNiV” value in series [1] was “inhibitory properties”.
With `C=CCN1C(=O)/C(=C/c2ccc(-c3ccccc3)o2)SC1=S` [LJ001, reference compound], in series [3], the “cell-cell fusion (syncytia)” value is given as “affect cell-cell fusion”. The “antiviral activity in the absence of light” value in series [1] is listed as “severely reduced in the absence of light”.
Usually CC50 stands for the concentration that lowers cell viability or growth by half. Read a low CC50 as greater toxicity to the cells. In general, EC50 refers to the midpoint of the concentration-response curve. High values mean lower potency in that assay, low ones higher potency in that assay. Consider `COC(=O)C(CSSC(=O)c1ccccc1)NC(=O)c1ccccc1` (stereo not drawn) [XM-01], for which, in series [4], the “antibody binding to F or G (conformation)” value is reported as “no significant changes in antibody binding to either glycoprotein”. Besides, the “cell-cell membrane fusion (syncytia)” value in [3] is “significantly reduced levels of cell-cell membrane fusion”. Further, in [2], the “inactivation of SARS-CoV-2” value is recorded as “complete inactivation” and the “inhibition of plaque formation of SARS-CoV2” value was “effective to inhibit plaque formation”. At NiV F protein, the F-triggering result was “not decreased”. Further, the “inhibition of HCMV infection” value in series [5] is listed as “inhibited by XM-01 in a concentration-dependent fashion”. Also, in the series on Vero cells, the 50% cytotoxic concentration (CC50) is about 1000 µM, the cytotoxicity result is given as “little to no cytotoxicity” and the cytotoxicity levels entry is “low levels of cytotoxicity”. Moreover, in [1], the EC50 is about 1 µM; the “antiviral activity in the absence of light” value is “did not need light to inhibit pNiV infection”; the “difference between the inhibitory and cytotoxic concentrations” value was ~ 3 log; the “infectivity of treated virions” value was “highly inhibited”. In series [1], the “inhibition of infection post-entry (time of XM-01 addition)” value is listed as “completely incapable of inhibiting the infection” and the “viral infection after pre-treatment of cells” value is reported as “did not significantly reduce viral infection”. The “viral membrane appearance by electron microscopy” value in the series on pNiV viral membranes is on record as “compromised membranes”. The ephrinB2/G binding entry on NiV G glycoprotein is listed as “did not interfere with the receptor-binding ability of the G glycoprotein”. For the same compound, the “inhibition of HSV-1 infection” value in the series with HSV-1 KOS is reported as “inhibited by XM-01 in a concentration-dependent fashion”. The “inhibition of VSV infection” value in [6] is recorded as “inhibited by XM-01 in a concentration-dependent fashion”. In addition, in [7], the “inhibition of RSV infection” value was “inhibited by XM-01 in a concentration-dependent fashion”. Moreover, in series [8], the “cell surface expression of F and G glycoproteins” value was “not be significantly affected”. In series [9], the EC50 entry is on record as “high nanomolar to low micromolar range”, the “inhibition of influenza A/California/04/2009 infection” value is listed as “inhibited by XM-01 in a concentration-dependent fashion; also recorded: significantly inhibited” and the neutralization of influenza result is “complete neutralization”. Moreover, the “inhibition of norovirus entry” value with norovirus is on record as “not inhibited”. Also, in series [10], the “inhibition of rotavirus entry” value was “not inhibited”.
Regarding `COC(=O)C(CSC(C)=O)NC(=O)c1ccccc1` (stereo not drawn) [XM-11], in the series on Vero cells, the cytotoxicity levels entry is given as “low levels of cytotoxicity”. Besides, the “inhibitory properties against pNiV” value in series [1] was “inhibitory properties”.
Regarding `O=C(SSC(=O)c1ccccc1)c1ccccc1` [XM-12], the “infectivity of pNiV in Vero cells” value in [1] is on record as “best inhibited pNiV infections”.

Values taken from patent US12728161B2 (priority 2019, dated 2026).
